Measurements from patent publication US11857544B2, “Composition or method including (t)ew-7197 for treating or preventing corneal endothelial diseases” (THE DOSHISHA, priority 2017, dated 2024).

How the values were obtained:
[1] = tested on: iFECD; experiment: Cell survival rate (Cell Titer-Glo Luminescent Cell Viability Assay); format: cell-based, human; settings: iFECD; all concentrations of 0.01, 0.1, 1, and 10 μM; 48 hours
Description: were seeded on a 96-well plate at a ratio of 3×10^3 cells per well, and cultured until reaching confluence at 37° C. (5% CO2). DMEM+10% FBS+1% P/S was used as the medium. After 24 hours, the medium was removed. SB431542 (WAKO, 192-16541) and EW-7197 (Selleck Chemicals, 57530) were added so that the final concentration would each be 0.01, 0.1, 1, or 10 μM, and the medium was cultured for 48 hours. DMEM+2% FBS+1% P/S was used as the medium. After 24 hours, the cell morphology was observed under a phase contrast microscope. After observation, the cell survival rate was analyzed using Cell Titer-Glo Luminescent Cell Viability Assay by the following procedures. The medium was discarded so that the amount would be 50 μl per well, and Cell Titer-Glo Luminescent Cell Viability Assay solution (Promega, G7572) was added at 50 μl/well so that the ratio to the medium would be 1:1. The process was hereinafter conducted without exposure to light. The mixture was mixed thoroughly using a shaker for 2 minutes at about 120 min^-1, and incubated for 10 minutes. After the incubation, 80 μl was transferred to an Assay plate (Corning, 3912, Assay plate 96 well, white polystyrene), and absorbance was measured using a GloMax-Multi Detection System (Promega, E7051).

[2] = tested on: immortalized human corneal endothelial cells from a Fuchs' endothelial corneal dystrophy patient (iFECD); experiment: Suppression of TGF-β-induced corneal endothelial cell disorder, observed under a phase contrast microscope; format: cell-based; settings: for effect of suppressing corneal endothelial cell disorder: Example 1, iFECD, 24 h pretreatment then 10 ng/ml TGF-β 24 h
Description: The medium was removed from a culture dish culturing immortalized human corneal endothelial cells from a Fuchs' endothelial corneal dystrophy patient (iFECD), and 1×PBS(-) preheated to 37° C. was added and washed. This was repeated twice. 1×PBS(-) was added again and the medium was incubated for 5 minutes at 37° C. (5% CO2). After removing the PBS(-), 0.05% Trypsin-EDTA (Nacalai Tesque, 32778-34) was added and incubated for 5 minutes at 37° C. (5% CO2). The medium was then suspended and centrifuged for 3 minutes at 1500 rpm to retrieve cells. DMEM (Nacalai Tesque, 08456-36)+10% FBS (Biowest, S1820-500)+1% P/S (Nacalai Tesque, 26252-94) was used as the medium. The immortalized human corneal endothelial cells from a Fuchs' endothelial corneal dystrophy patient (iFECD) were seeded on a 12-well plate at a ratio of 8.0×10^4 cells per well and cultured for 24 hours at 37° C. (5% CO2). DMEM+10% FBS+1% P/S was used as the medium. After 24 hours, the medium was exchanged and cultured again for 24 hours. DMEM+2% FBS+1% P/S was used as the medium. After 24 hours, the medium was removed. 10 ng/ml of Transforming Growth Factor-132 Human recombinant (WAKO, 200-19911) was added, and the medium was cultured for 24 hours. DMEM+2% FBS+1% P/S was used as the medium. After 24 hours, the cell morphology and apoptosis were observed under a phase contrast microscope. After […] were seeded on a 12-well plate and cultured for 24 hours, the medium was removed. SB431542 (WAKO, 192-16541) and EW-7197 (Selleck Chemicals, 57530) were added so that the final concentration would each be 0.1, 0.3, 1, 3, or 10 μM, and the medium was cultured for 24 hours. DMEM+2% FBS+1% P/S was used as the medium. After 24 hours, the medium was removed. 10 ng/ml of Transforming Growth Factor-132 Human recombinant (WAKO, 200-19911) as well as SB431542 and EW-7197 were added so that the final concentration would each be 0.1, 0.3, 1, 3, or 10 μM, and the medium was cultured for 24 hours. DMEM+2% FBS+1% P/S was used as the medium. After 24 hours, the cell morphology and apoptosis were observed under a phase contrast microscope. After […] were seeded on a 12-well plate at a ratio of 7.0×10^4 cells and cultured for 24 hours, the medium was removed. EW-7197 (Selleck Chemicals, 57530) was added so that the final concentration would be 0.001, 0.003, 0.01, 0.03, 0.1, 0.3, 1, 3, 10, or 30 μM, and the medium was cultured for 24 hours. DMEM+2% FBS+1% P/S was used as the medium. After 24 hours, the medium was removed. 10 ng/ml of Transforming Growth Factor-132 Human recombinant (WAKO, 200-19911) and EW-7197 were added so that the final concentration would be 0.001, 0.003, 0.01, 0.03, 0.1, 0.3, 1, 3, 10, or 30 μM, and the medium was cultured for 24 hours. DMEM+2% FBS+1% P/S was used as the medium. After 24 hours, the cell morphology and apoptosis were observed under a phase contrast microscope.

[3] = tested on: Caspase 3/7; experiment: Caspase 3/7 activity (Caspase-Glo 3/7 Assay) in TGF-β-stimulated iFECD; format: cell-based, human; settings: in the order of 0.01, 0.1, 1, and 10 μM
Description: were seeded on a 96-well plate at a ratio of 3×10^3 cells per well, and cultured until reaching confluence at 37° C. (5% CO2). DMEM+10% FBS+1% P/S was used as the medium. After 24 hours, the medium was removed. SB431542 (WAKO, 192-16541) and EW-7197 (Selleck Chemicals, 57530) were added so that the final concentration would each be 0.01, 0.1, 1, or 10 μM, and the medium was cultured for 24 hours. DMEM+2% FBS+1% P/S was used as the medium. After 24 hours, the medium was removed. 10 ng/ml of Transforming Growth Factor-132 Human recombinant (WAKO, 200-19911) and SB431542 were added so that the final concentration would be 0.01, 0.1, 1, and 10 μM, and the medium was cultured for 24 hours. DMEM+2% FBS+1% P/S was used as the medium. After 24 hours, the cell morphology was observed under a phase contrast microscope. After observation, Caspase 3/7 activity was measured using Caspase-Glo 3/7 Assay by the following procedures. The medium was discarded so that the amount would be 50 μl per well, and a Caspase Glo 3/7 Assay Reagent (mixture of Caspase-Glo 3/7 Assay Buffer and Caspase-Glo 3/7 Assay Substrate) (Promega, G8091) solution was added at 50 μl/well so that the ratio thereof to the medium would be 1:1. The process was hereinafter conducted without exposure to light. The mixture was mixed thoroughly using a shaker for 2 minutes at about 120 min^-1, and incubated for 40 minutes at room temperature. After the incubation, 80 μl was transferred to an Assay plate (Corning, 3912, Assay plate 96 well, white polystyrene), and absorbance was measured using a GloMax-Multi Detection System (Promega, E7051). A caspase inhibitor, i.e., 10μ MZ-VD-FMK (WAKO, 262-02061) was used as a positive control.

activity of Caspase 3/7 [3]: reduced
Structure (SMILES): NC(=O)c1ccc(-c2nc(-c3ccc4c(c3)OCO4)c(-c3ccccn3)[nH]2)cc1 [SB431542, reference compound]
cell survival rate compared to a control group [1]: a significant difference was not found
effect of suppressing corneal endothelial cell disorder ([2]; compound at 3 μM and 10 μM): suppressed
effect of suppressing corneal endothelial cell disorder ([2]; compound at 10 μM): effectively suppressed
effect of suppressing corneal endothelial disorders ([2]; summary statement, at sub-μM (1 μM to 0.1 μM)): not observed
